Several values for one entry are separate records, joined by “and”; a condition that tells them apart may be missing. Equal entries are not always repeated. Activity calls are given as the source filed them.
Columns and labels:
[1] = Luminescence Cell-Based Dose Response HTS to Identify Activators of Luciferase Translation or Activity in H4 […] Cells. [Related pubchem assays: 1829 (Project Summary), 1814 (Primary HTS)]; assay type: functional
[2] = Luminescence Cell-Based Dose Confirmation HTS to Identify Activators of 5'UTR Stem-Loop Driven Alpha-Synuclein mRNA Translation in H4 Neuroglioblastoma Cells. [Related pubchem assays: 1829 (Project Summary), 1814 (Primary HTS)]; assay type: functional
Protein skinhead-1 = biological target: T1, Protein skinhead-1 (Caenorhabditis elegans, UniProt P34707); assay type: functional
T1 sequence (P34707 whole entry): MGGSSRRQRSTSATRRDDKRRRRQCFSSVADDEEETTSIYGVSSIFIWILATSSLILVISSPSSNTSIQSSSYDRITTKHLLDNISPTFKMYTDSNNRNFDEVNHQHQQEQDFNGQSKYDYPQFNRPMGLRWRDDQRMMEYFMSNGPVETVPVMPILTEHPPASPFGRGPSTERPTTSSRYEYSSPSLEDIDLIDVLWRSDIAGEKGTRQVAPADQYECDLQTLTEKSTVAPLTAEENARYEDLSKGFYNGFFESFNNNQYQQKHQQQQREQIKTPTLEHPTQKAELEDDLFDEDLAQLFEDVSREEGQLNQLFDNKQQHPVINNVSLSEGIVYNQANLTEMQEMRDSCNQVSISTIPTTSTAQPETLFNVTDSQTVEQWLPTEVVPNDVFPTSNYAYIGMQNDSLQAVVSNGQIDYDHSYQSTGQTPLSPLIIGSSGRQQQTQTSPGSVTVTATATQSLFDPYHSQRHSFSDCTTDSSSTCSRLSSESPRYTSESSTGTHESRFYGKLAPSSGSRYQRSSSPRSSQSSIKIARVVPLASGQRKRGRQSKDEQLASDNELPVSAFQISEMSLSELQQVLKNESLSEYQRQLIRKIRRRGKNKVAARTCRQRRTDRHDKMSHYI

[3] = biological target: T2, Heat shock factor protein 1 (Mus musculus, UniProt P38532); experiment: HSF1 potentiators in luciferase reporter cells, confirmation, cell-based, NIH3T3, luminescence, dose retest (AID 435004); assay type: functional;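 further: stress induced by proteasome inhibitor MG132 added 30 min after compound; luciferase reporter driven by HSF1 response element in NIH3T3 cells; actives raise luminescence as potentiators of the MG132 stress response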
T2 sequence (P38532 whole entry): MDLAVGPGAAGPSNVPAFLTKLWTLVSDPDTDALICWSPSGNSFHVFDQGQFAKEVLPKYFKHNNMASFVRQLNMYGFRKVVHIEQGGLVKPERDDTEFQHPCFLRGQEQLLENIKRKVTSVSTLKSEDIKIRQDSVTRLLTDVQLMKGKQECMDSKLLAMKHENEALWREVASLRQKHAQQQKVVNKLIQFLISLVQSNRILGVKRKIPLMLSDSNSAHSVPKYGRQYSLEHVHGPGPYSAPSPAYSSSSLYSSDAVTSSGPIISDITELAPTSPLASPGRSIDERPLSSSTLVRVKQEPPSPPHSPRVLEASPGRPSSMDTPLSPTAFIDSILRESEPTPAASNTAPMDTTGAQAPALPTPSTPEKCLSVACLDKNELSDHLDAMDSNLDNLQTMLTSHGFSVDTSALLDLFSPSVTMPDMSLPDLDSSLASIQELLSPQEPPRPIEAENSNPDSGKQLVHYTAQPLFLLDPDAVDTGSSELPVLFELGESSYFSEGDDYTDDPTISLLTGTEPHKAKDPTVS

[4] = P. falciparum Dd2 growth inhibitors, dose response, SYBR Green, cherry-picked samples (AID 1159567); assay type: functional, cell-based
Cytochrome P450 2D6 = Cytochrome P450 2D6 (Homo sapiens, UniProt P10635);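 further: CYP2D6 member of a cytochrome P450 panel assay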
Cytochrome P450 3A4 = Cytochrome P450 3A4 (Homo sapiens, UniProt P08684);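 further: CYP3A4 tested as one member of a cytochrome P450 panel screen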
[5] = biological target: T3, RNA-binding protein pos-1 (Caenorhabditis elegans, UniProt G5EF15); experiment: inhibitors of POS-1/mex-3 RNA binding, dose response, biochemical, fluorescence polarization (AID 1964);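 further: purified POS-1 fused to maltose binding protein made in E. coli; potency of compounds blocking POS-1 binding to fluorescent RNA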
T3 sequence (G5EF15 whole entry): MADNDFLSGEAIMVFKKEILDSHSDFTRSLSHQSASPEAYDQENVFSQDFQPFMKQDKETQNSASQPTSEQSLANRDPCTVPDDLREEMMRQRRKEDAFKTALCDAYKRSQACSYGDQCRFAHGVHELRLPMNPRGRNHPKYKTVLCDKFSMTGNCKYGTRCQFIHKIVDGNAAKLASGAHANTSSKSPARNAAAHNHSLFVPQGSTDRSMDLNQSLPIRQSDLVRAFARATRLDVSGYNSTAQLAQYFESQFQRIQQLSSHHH

[6] = biological target: T4, Zinc finger protein mex-5 (Caenorhabditis elegans, UniProt Q9XUB2); experiment: MEX-5/TCR-2 RNA interaction inhibitors, dose response, biochemical, C. elegans, fluorescence polarization (AID 1960)
T4 sequence (Q9XUB2 whole entry): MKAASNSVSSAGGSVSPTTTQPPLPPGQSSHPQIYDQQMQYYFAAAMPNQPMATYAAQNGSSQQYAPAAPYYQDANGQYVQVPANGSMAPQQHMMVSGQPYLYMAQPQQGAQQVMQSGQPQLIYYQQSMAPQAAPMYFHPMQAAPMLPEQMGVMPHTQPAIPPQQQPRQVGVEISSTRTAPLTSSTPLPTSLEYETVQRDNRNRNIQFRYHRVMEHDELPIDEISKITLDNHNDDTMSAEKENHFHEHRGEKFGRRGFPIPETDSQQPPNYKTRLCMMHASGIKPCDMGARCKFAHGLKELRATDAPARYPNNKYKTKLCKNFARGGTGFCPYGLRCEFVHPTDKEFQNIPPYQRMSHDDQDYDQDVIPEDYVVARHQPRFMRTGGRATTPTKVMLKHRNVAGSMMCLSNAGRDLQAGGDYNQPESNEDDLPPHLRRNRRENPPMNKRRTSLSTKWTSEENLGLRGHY

[7] = biological target: T2, Heat shock factor protein 1; experiment: inhibition of MG132-induced HSE-luciferase signal, confirmation, cell-based, NIH3T3, luminescence, dose retest (AID 2382); assay type: functional;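 further: NIH3T3 fibroblasts with HSF1-driven luciferase reporter stressed by proteasome inhibitor MG132; luminescence from HSF1-driven luciferase expression after 8 hours of MG132 stress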
INS1 = experiment: beta cell apoptosis inhibitors, cytokine rescue, dose response, luminescence, retest (AID 449756); assay type: functional, cell-based; settings: Rattus norvegicus;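 further: cell death triggered by IL-1 beta plus TNF-alpha plus IFN-gamma mixture; protective hits raise ATP signal compared with cytokine alone wells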
Cytochrome P450 2C9 = Cytochrome P450 2C9 (Homo sapiens, UniProt P11712)
Cytochrome P450 1A2 = biological target: T5, Cytochrome P450 1A2 (Homo sapiens, UniProt P05177);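 further: PubChem cytochrome P450 panel assay, CYP1A2 panel member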
T5 sequence (P05177 whole entry): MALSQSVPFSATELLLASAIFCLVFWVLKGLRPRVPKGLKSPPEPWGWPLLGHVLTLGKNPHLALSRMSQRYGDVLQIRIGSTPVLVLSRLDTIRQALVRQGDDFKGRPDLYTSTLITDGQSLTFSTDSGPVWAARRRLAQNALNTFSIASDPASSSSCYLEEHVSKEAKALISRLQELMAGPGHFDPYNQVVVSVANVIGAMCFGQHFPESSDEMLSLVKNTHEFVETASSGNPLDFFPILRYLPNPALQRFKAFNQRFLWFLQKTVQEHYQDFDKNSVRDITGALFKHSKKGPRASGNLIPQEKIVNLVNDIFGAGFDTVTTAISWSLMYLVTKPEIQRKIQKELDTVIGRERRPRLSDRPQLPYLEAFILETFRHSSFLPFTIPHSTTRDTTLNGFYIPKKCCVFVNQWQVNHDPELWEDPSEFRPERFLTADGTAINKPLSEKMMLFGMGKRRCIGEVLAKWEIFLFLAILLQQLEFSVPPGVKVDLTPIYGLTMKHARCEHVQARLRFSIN

Cytochrome P450 2C19 = Cytochrome P450 2C19 (Homo sapiens, UniProt P33261); experiment: Cytochrome panel assay with activity outcomes. Panel member name: p450-cyp2c19 Compounds with AC50 equal or less than 10 uM are considered active; assay type: functional; settings: read-out: AC50
Chain of Cytochrome P450 2C19 (P33261 whole entry): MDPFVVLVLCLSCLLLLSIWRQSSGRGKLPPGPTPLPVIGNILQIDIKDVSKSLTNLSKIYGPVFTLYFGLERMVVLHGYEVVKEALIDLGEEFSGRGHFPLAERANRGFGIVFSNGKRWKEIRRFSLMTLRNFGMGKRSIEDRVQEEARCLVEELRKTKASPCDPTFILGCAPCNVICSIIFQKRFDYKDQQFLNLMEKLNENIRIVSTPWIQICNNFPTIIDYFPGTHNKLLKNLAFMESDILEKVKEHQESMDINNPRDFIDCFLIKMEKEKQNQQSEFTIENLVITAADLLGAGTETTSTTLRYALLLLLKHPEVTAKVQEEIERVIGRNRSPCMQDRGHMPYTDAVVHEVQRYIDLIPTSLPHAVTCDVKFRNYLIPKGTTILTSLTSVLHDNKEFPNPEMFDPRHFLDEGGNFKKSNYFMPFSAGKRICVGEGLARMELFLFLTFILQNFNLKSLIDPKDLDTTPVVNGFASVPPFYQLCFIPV

Chain of Cytochrome P450 2D6 (P10635 whole entry): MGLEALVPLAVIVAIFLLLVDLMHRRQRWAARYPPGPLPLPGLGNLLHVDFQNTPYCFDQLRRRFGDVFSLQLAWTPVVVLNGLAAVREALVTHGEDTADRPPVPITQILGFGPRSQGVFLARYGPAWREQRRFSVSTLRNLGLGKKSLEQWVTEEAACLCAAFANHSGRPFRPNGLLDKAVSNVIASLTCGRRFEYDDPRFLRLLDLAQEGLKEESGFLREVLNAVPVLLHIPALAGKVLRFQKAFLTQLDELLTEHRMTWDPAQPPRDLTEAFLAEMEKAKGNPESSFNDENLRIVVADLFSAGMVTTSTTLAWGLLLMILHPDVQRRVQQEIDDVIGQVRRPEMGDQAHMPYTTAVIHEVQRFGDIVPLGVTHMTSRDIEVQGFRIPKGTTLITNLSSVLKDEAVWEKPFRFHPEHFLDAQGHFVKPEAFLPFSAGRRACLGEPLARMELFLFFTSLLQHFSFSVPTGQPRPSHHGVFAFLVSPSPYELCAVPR
Chain of Cytochrome P450 3A4 (P08684 whole entry, the tested form may be a part): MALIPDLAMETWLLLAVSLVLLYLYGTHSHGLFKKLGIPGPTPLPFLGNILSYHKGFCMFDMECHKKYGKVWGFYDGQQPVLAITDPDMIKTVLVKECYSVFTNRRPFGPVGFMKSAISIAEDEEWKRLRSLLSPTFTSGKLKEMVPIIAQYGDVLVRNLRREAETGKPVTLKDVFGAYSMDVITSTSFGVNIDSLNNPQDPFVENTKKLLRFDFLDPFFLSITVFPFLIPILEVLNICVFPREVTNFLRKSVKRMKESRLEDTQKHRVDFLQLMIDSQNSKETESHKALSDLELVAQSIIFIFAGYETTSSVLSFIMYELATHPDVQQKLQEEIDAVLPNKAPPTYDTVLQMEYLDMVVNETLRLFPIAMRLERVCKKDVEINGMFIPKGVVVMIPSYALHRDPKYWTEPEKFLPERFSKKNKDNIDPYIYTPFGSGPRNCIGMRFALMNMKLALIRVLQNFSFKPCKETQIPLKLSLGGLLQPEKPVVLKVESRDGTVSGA
Chain of Cytochrome P450 2C9 (P11712 whole entry): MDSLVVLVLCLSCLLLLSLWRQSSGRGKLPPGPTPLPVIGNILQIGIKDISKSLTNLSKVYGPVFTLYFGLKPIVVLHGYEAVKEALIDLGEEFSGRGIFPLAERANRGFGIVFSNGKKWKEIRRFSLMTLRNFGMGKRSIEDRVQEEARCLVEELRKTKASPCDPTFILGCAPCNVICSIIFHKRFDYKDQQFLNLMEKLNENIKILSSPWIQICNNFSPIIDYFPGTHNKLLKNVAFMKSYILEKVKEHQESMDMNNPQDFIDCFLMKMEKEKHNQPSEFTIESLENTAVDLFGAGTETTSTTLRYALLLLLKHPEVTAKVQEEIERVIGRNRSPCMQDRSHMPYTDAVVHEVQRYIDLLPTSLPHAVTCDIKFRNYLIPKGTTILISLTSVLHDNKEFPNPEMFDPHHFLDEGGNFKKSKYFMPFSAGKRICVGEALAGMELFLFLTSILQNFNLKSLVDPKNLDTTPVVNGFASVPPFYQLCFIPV

CCN(CC)c1nc(C)nc2c1cnn2CCc1ccccc1
EC50 [1]: 92.1 µM (active)
EC50 [2]: 85.2 µM (active)

O=C(c1cccnc1)C1Cc2ccccc2C1=O (stereo not given)
IC50 (Protein skinhead-1): > 100 µM (inactive)

CCOC(=O)/C=C/C(=O)N1CCc2ccccc21
EC50 [3]: 24.7 µM (active)

O=C(C[C@@H]1C[C@H]2c3cc(NS(=O)(=O)c4ccc(F)cc4)ccc3O[C@H]2[C@H](CO)O1)N1CCc2ccccc2C1
AC50 [4]: 9.73 µM (active)

Cc1ccc(NC(=O)CSCc2cc(=O)n3ccsc3n2)cc1
IC50 (Protein skinhead-1): > 100 µM (inactive)

CN1CC[C@@]2(CCN3CCc4c(oc5ccccc45)[C@@H]3C2)N(C)C1=O
AC50 (Cytochrome P450 2D6): 31.6 µM (inconclusive)
AC50 (Cytochrome P450 3A4): 12.6 µM (inconclusive)

CCN(CC(=O)Nc1ccccc1C(F)(F)F)C(=O)c1ccc(NC(=O)c2cccs2)cc1
IC50 (Protein skinhead-1): > 100 µM (inactive)

CSc1ccc(Cl)c(C(=O)OCC(=O)N(C)CCC#N)c1
EC50 [3]: > 260 µM (inactive)

Cc1ccc(NC(=O)c2c(Cl)n(C)c3ccccc23)cc1
EC50 [3]: 31.5 µM (active)

CCCNC(=O)N1[C@H](C#N)[C@@H](c2ccccc2C2=CCCC2)[C@@H]1CO
AC50 [4]: 7.07 µM (active)

Cc1ccccc1/C=C1\CCCc2ccccc2C1=O
EC50 [1]: 0.328 µM (active)
EC50 [2]: 0.172 µM (active)

COc1ccccc1CCn1c(=O)c(-c2ccccc2)nc2cncnc21
AC50 (Cytochrome P450 2D6): 12.6 µM (inconclusive)

CC(=O)n1c(/C=N/c2ccccc2)c(O)c2ccccc21
EC50 [5]: > 300 µM (not active)
EC50 [6]: > 300 µM (not active)

O=C(CN1C(=O)NC2(CCCCCC2)C1=O)c1ccc2c(c1)OCCO2
EC50 [1]: 0.676 µM (active)
EC50 [2]: 4.64 µM (active)

N#C/C(=C\c1cn(Cc2ccccc2)c2ccccc12)C(=O)NCc1ccco1
EC50 [3]: 35.6 µM (active)

COCC(=O)Nc1ccc2c(c1)C(=O)N(C)C[C@H](OC)[C@H](C)CN(Cc1cc(F)ccc1F)[C@H](C)CO2
AC50 [4]: 3.74 µM (active)

OCCN(Cc1ccccc1)Cc1cccc(Cl)c1Cl
AC50 (Cytochrome P450 2D6): 1.58 µM (inconclusive)
EC50 [7]: > 195 µM (not active)

O=C(Nc1cc(-c2ccccc2)nn1C1CCCCC1)c1ccc(Cl)cc1
AC50 (INS1): 5.2 µM (active)

COc1nnc(-c2ccc(N3CCCCC3)c(NC(=O)C3CCCCC3)c2)c2ccccc12
AC50 (INS1): 6.09 µM (active)

CC(C)c1cccc(C(C)C)c1OC(=O)[C@H]1OC(C(C)(C)C)=C[C@@H]1c1ccccc1
AC50 (INS1): 7.46 µM (active)

c1ccc(-c2noc(-c3cccc4ccccc34)n2)cc1
IC50 (Protein skinhead-1): 18.8 µM (active)

CCCCn1nnnc1NCc1ccc(C)s1
IC50 (Protein skinhead-1): > 100 µM (inactive)

CCCn1nc2cc(C(=O)NCc3ccc(OC(F)(F)F)cc3)ccc2c1OCC
IC50 (Protein skinhead-1): 16.4 µM (active)

COc1ccccc1-c1ccc([C@@H]2[C@@H](CO)N3CCCCN(C(=O)c4ccncc4)C[C@@H]23)cc1
AC50 [4]: 14.1 µM (active)

CCOc1ccc(CN(C)C(=O)CNC(=O)c2ccc3ccccc3c2)cc1OC
EC50 [3]: > 260 µM (inactive)

O=C(CSc1nnc(CN2CCOCC2)n1-c1ccc(Cl)cc1)N1CCc2ccccc21
IC50 (Protein skinhead-1): > 100 µM (inactive)

CCCC(=O)O/N=C(\c1ccccc1)c1ccncc1
EC50 [3]: > 260 µM (inactive)

COc1cccc(Cn2c(=O)c(-c3ccc(Cl)cc3)nc3cnc(N4CCNCC4)nc32)c1
AC50 (Cytochrome P450 2D6): 39.8 µM (inconclusive)
AC50 (Cytochrome P450 3A4): 15.8 µM (inconclusive)

Cc1ccc(-c2ccccc2)n1-c1ccc(C(=O)O)cc1
EC50 [5]: > 300 µM (not active)
EC50 [6]: > 300 µM (not active)

COc1ccccc1-c1cnn2c(NCc3ccccc3)cc(C)nc12
EC50 [5]: > 300 µM (not active)
EC50 [6]: > 300 µM (not active)

COc1cc(C2C3CN(C)CC=C3C(C#N)=C(N)C2(C#N)C#N)ccc1OC(C)C (stereo not given)
EC50 [5]: > 300 µM (inconclusive)
EC50 [6]: 31.3 µM (active)

CCC(=O)c1ccc(OCC(O)CN2CCN(S(=O)(=O)N3CCCCC3)CC2)cc1 (stereo not given)
IC50 (Protein skinhead-1): > 100 µM (inactive)

COc1ccc([C@H]2CC(=O)C=C(c3ccnc4ccc(Cl)cc34)C2)cc1
AC50 (INS1): 2.64 µM (active)

C[C@H](N)Cc1c[nH]c2ccc(O)cc12
AC50 (Cytochrome P450 2D6): 15.8 µM (inconclusive) and 39.8 µM (inconclusive)

Clc1ccc(OCCCCCN2CCOCC2)cc1
IC50 (Protein skinhead-1): 53.9 µM (inactive)

Fc1ccc(-c2nc(-c3cnccn3)no2)c(Cl)c1
IC50 (Protein skinhead-1): > 100 µM (inactive)
EC50 [3]: > 260 µM (inactive)

COc1ccc(C(=O)N(C)CC(O)c2ccccc2)cc1OC1CCN(C(C)=O)CC1 (stereo not given)
EC50 [3]: > 260 µM (inactive)

O=C(O)CCCCCNC(=O)c1ccncc1
AC50 (Cytochrome P450 2C9): 25.1 µM (inconclusive)
AC50 (Cytochrome P450 1A2): 0.01 µM (inconclusive)
AC50 (Cytochrome P450 2C19): 39.8 µM (inconclusive)

O=C(C1=C[C@@H](c2ccc(C(F)(F)F)cc2)C[C@@H](OCCCCO)O1)N1CCN(Cc2ccccc2)CC1
AC50 (INS1): 5.94 µM (active)

CC1(OC(=O)c2cccs2)C(=O)C=C2C=C(c3ccc(C#N)cc3)OC=C2C1=O (stereo not given)
EC50 [5]: 93.2 µM (active)
EC50 [6]: 31.3 µM (active)

O=C(N/N=C\c1cc([N+](=O)[O-])ccc1N1CCCC1)c1ccccn1
EC50 [5]: 149 µM (inconclusive)
EC50 [6]: 70.5 µM (inconclusive)

Cc1nc(Sc2ccc(Br)cc2)c(C#N)c(C)c1[N+](=O)[O-]
EC50 [3]: 125 µM (active)

COC(=O)c1ccc(Nc2cc(C)nc3ncnn23)cc1
IC50 (Protein skinhead-1): > 100 µM (inactive)

C=CCOc1ccc(C2OC34CCCCC3C(C#N)(C#N)C2(C#N)C(=N)O4)cc1 (stereo not given)
EC50 [5]: 12.5 µM (active)
EC50 [6]: 9.41 µM (active)
